In patent publication US9018237B2, “Methods for improved wound closure employing olivamine and endothelial cells” (priority 2009, dated 2015):

Tested on: human microvascular endothelial cells
Assay: in vitro model of wound healing (cell migration), time for 50% of wound to heal
Type: cell-based
From the text: The time for wounds to heal by 50% under the various treatment conditions was quantified.

Question: Which “less effective in wound healing than the present art” value (hydroxytyrosol alone versus the combination (Table 1)) does the source give for `OCCc1ccc(O)c(O)c1` [Hydroxytyrosol] here?
Answer: 30%

Question: With `NCCS(=O)(=O)O` [L-Taurine] as the molecule, how does the “Time for 50% wound to heal” value (Table 9, single ingredients, Present Art and Present Art without one ingredient) read?
Answer: 22.5 h

Question: With `CC(=O)N[C@@H](CS)C(=O)O` [N-acetylcysteine, reference compound] as the molecule, how does the “effect on time and extent of wound healing (in words)” value (compared to untreated or to the additive effect of the compounds) read?
Answer: increased the time to 50% healing compared to untreated
